The values below are quoted from earlier work in patent US20080233128A1, “Treatment of Viral Infections” (priority 2006, published 2008).

The subject of this data set is circulating T-cells.

In the case of alemtuzumab, the “time to full recovery of T-cells” value (after a single dose, FIG. 1) is recorded as not below 3 months. Also, the “T-cell depletion (killing of circulating T-cells)” value (single dose, FIG. 1, mean ALC as a function of time) is “kill all circulating T-cells”.
